Assay [1] has as its system interleukin 2 (IL-2) secretion. Briefly: anti-CD3/anti-CD28 antibody-induced IL-2 secretion in human PBMC (ELISA). The conditions noted are these: human PBMC stimulated with anti-CD3 and anti-CD28, 20 hours. It is filed as cell-based. The protocol:
The extent to which test substance influence antibody-induced interleukin 2 (IL-2) secretion was investigated in the following test system. IL-2 represents a central cytokine which is produced and released by activated T cells. IL-2 synthesis in the T cells is regulated by a plurality of kinases. An inhibitory effect of substances on kinases leads inter alia to inhibition of IL-2 synthesis and inhibition of the T cell immune response. The cytokine determinations were carried out using an ELISA kit.
Peripheral blood mononuclear cells (PBMC) were isolated from heparinized human whole blood by gradient centrifugation using Histopaque 1077 (Sigma) at room temperature, and the erythrocytes were lyzed hypotonically and, after washing twice in PBS, taken up in cell culture medium (10% fetal inactivated calf serum in RPMI-1640+Glutamax-I [Gibco]).
The 96 well culture plates (Costar) were previously incubated with 100 μl of antibody solution in PBS 0.1 μg/ml in PBS [Gibco]) per well at 4° C. for 18 hours. The antibodies used were anti-CD3 and anti-CD28 monoclonal antibodies (PharMingen). After washing with PBS three times, the plates were charged with 200 μl of the cell suspension (40 000 cells/well). […]
Interleukin-2 was determined using an ELISA kit (Bioscience), and the absorption of the color change was analyzed in a SpectraMax 340 PC (wavelength 450 nm). […]

The target in the next assay is T1, protein kinase C theta (Homo sapiens, UniProt Q04759).
T1 construct: purchased ProQinase (Freiburg)
Briefly: PKC-theta HTRF kinase assay. The conditions noted are these: recombinant PKC-theta, 10 μM ATP, read-out: Inhibition of PKC theta IC50. It is filed as biochemical. The protocol:
Inhibition of the enzymic activity of the protein kinase C theta was determined with the aid of the PKC-theta HTRF assay.
Recombinant PKC-theta protein was purchased from ProQinase (Freiburg). The kinase substrate used was the biotinylated peptide having the amino acid sequence biotin-RFARKGSLRQKNVHEVK, which was purchased from Biosynthan (Berlin).
PKC-theta [0.7 nM in the assay mixture, assay volume 5 μl] was incubated at 22° C. for 15 min in the presence of various concentrations of test substances (0 μM, and 10 measurement points within the range 0.001-20 μM in duplicates) in assay buffer [50 mM Hepes/NaOH pH 7.4, 1.0 mM MnCl2, 10.0 mM MgCl2, 1.0 mM dithiothreitol, 0.1 mM sodium orthovanadate, 10 μM adenosine triphosphate (ATP), 0.5 μM substrate peptide, 0.1 mg/ml phosphatidyl serine, 0.01 mg/ml diacylglycerol, 1% (v/v) dimethyl sulfoxide]. The reaction was stopped by adding 5 μl of an EDTA/detection solution [50 mM Hepes/NaOH pH 7.4, 400 mM KF, 40 mM EDTA, 0.1% bovine serum albumin, 100 nM streptavidin-XLlent (from Cisbio, #611SAXLB), 1.8 nM anti-phospho PKC substrate crypate conjugate antibody (CisBio: #61P03KAZ)]. […]

SMILES strings stand for the structures.

T1 sequence (Q04759 whole entry): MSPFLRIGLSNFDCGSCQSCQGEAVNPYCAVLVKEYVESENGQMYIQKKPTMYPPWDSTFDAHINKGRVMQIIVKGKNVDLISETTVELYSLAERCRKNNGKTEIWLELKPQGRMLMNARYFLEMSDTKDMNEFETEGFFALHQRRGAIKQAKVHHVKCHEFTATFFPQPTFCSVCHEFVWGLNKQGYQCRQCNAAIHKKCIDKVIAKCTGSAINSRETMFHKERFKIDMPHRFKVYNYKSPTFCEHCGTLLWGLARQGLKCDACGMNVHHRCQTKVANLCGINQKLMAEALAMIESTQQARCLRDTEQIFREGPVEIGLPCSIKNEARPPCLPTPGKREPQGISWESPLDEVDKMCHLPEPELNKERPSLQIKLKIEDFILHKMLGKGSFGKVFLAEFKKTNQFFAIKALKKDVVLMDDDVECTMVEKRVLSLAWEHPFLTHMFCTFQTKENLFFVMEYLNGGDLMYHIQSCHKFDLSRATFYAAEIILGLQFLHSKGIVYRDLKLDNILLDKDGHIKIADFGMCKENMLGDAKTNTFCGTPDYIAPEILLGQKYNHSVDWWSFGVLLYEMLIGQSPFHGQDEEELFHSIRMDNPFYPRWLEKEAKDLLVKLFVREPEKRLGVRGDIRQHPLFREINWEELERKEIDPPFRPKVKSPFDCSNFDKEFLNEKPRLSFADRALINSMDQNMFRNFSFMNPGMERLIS

As for `Clc1cccc(-c2cnc3ccc(OCCCN4CCOCC4)nn23)c1` [Example 1, 3-(3-Chlorophenyl)-6-(3-morpholin-4-ylpropoxy)imidazo[1,2-b]pyridazine], in assay [1] (10 μM), the inhibition at 10 µM is greater than 95%. Further, the IC50 in assay [1] (IL-2 ELISA, read-out: IC50 (concentration for 50% inhibition of IL-2)) is 1.3 µM; on protein kinase C theta it was 4.1 µM.

The record behind these values is patent publication US8653076B2, “Oxo-substituted imidazo[1,2B]pyridazines, their preparation and use as pharmaceuticals” (Bayer Intellectual Property GmbH, priority 2006, dated 2014).
